Measured values as given in patent EP0671947B1, “COMPOSITIONS FOR ELICITING CYTOTOXIC T-[…] AGAINST VIRUSES” (BOARD OF REGENTS THE UNIVERSITY OF TEXAS SYSTEM, priority 1991, dated 1993).
“And” between values parts separate entries of the source, which are not always exact repeats. Equal values may be shown once. “Also recorded” adds a separate entry of the source. Read-outs that look alike come from different tables or passages of the source. Ends that are not written are not given here.

Tests used:
[1] = system: 3A9; format: in vivo, Balb/c mice
[2] = system: HIV-1 IIIB; experiment: Effect of V3 loop peptides on HIV-1 IIIB infection of human cells (RT activity); format: cell-based; settings: for RT ACTIVITY (CPM): No Peptide 7528, Uninfected cells 558
From the text: As detailed in TABLE 11A, these peptides include D23, D24, D25, D26, D30, D35, D38, D39, D40 and D44, which reflect a variety of strains such as mn, rf, wmj-3, sc, z6, eli, mn (y-l) and mn (y-p). However, it is important to note that this assay was confined specifically to inhibiting the infection of the heterologous strain HIV-1 IIIB. […]

[3] = system: PBMC; experiment: PBMC proliferation after immunization with a mixture of eight synthetic peptides; format: in vivo, rhesus monkeys; set-up: key to T-cell Proliferation Responses, Rhesus Monkey #7 / T-cell Proliferation Responses, Rhesus Monkey #23 / T-cell Proliferation Responses, Rhesus Monkey #283C: (-), no detectable response; (1+), poor response; (2+), good response; (3+), better response; (4+, 6+), best response; (4+, 6+), best response; settings: for T-cell Proliferation Responses, Rhesus Monkey #7 / T-cell Proliferation Responses, Rhesus Monkey #23 / T-cell Proliferation Responses, Rhesus Monkey #283C: PBMC response to the individual antigen after immunization with mixture of eight peptides; for proliferative responses of PBMCs (in words): three rhesus monkeys immunized with mixture of eight peptides
Protocol: In the present studies, three rhesus monkeys (#7, #23 and #283C) were immunized subcutaneously with 1 ml (0.1 ml/site) of a mixture of eight synthetic peptides (300 µg of each peptide in sterile water) emulsified in complete Freund's adjuvant at 1:1 ratio. […] At 3 and 7 weeks after the primary immunization, two booster injections of the peptide mixture (150 µg of each peptide in sterile water) emulsified in incomplete Freund's adjuvant were given to each monkey. Monkey #7 was terminated after 34 weeks, for health reasons unrelated to the study, while the remaining two monkeys (#283C and #23) received one additional booster injection at 25 weeks.
At two week intervals following the first immunization of each animal, 15 ml of whole heparinized blood was collected by venous puncture. The peripheral blood mononuclear cells (PBMC) were separated by standard ficoll-hypaque centrifugation and employed in proliferation assays. The PBMCs were monitored every two weeks for a period of 32 weeks for proliferative responses against individual peptides and recombinant gp160.

[4] = system: BALB/c mice; experiment: ELISA for anti-peptide antibody response after immunization; settings: high molecular weight forms
[5] = system: PLN cells; experiment: In vitro proliferation of PLN cells (3H-TdR incorporation) after footpad immunization; format: in vivo, B6C3 F1 mice; settings: disulfide (di-Cys) polymeric form; summary of mouse studies
Protocol: The high molecular weight, multimeric di-Cys peptide polymeric forms of the peptides described in EXAMPLE 1 were assayed for their elicitation of a T cell proliferative response as in Millich et al. (1985).
FIGURES 2-5 illustrate the peptide-specific ^3H-TdR incorporation for T cell responses (delta cpm) in mice with differing major histocompatibility (MHC) haplotypes, B6C3 F1 (C57B1/6xC^3H/HcJ) mice (FIGURES 2 and 4) and (A.SWxBALB/c) F1 mice (FIGURES 3 and 5), for all of the synthetic peptides. The ^3H-TdR incorporation values represent the difference between the radioactivity values obtained in wells containing antigen and in control wells without added antigen. The non-specific proliferation of PLN cells was determined by including an unrelated peptide in the assays, shown as a horizontal bar for each peptide.

[6] = system: P815
[7] = format: in vivo, Balb/c mice
[8] = system: HIV-1; format: cell-based, HIV-1 IIIB
[9] = system: HIV-1 infected CCRF-CEM and uninfected Molt-4 cells; settings: cited from earlier work
[10] = system: HIV-1; format: cell-based; settings: seven days after infection
[11] = system: envelope protein gp160 of HIV-1 IIIB, mn or rf strains; format: cell-based
[12] = system: HIV-1; format: cell-based; settings: various concentrations, seven days after infection
[13] = system: HIV-1; format: cell-based; settings: various concentrations, seven days after infection; remark: listed apart in the source
[14] = 1 µg/ml, RT activity in culture supernatant after 9 days, IIIB strain

TYQRTRALVTG [Peptide B106, reference compound]
% Specific Lysis ([1]; effector cells: No Treatment, target 3A9 (H-2^k), E:T 80:1): 0% | % Specific Lysis ([1]; effector cells: No Treatment, target 3A9 (H-2^k), E:T 160:1): 0%

SISIGPGRAFFATTD [Peptide D34]
RT ACTIVITY (CPM) [2]: 11142 CPM

GTGPCTNVSTVQC [Peptide 116]
T-cell Proliferation Responses, Rhesus Monkey #7 [3]: 1+ | T-cell Proliferation Responses, Rhesus Monkey #23 [3]: 3+ | T-cell Proliferation Responses, Rhesus Monkey #283C [3]: 2+ | proliferative responses of PBMCs (in words) [3]: weak responses | anti-peptide antibody titers (in words) [4]: very low to negligible

FLGFLGAAGSTMGAASLTLTVQANQ [Peptide 63]
T-cell Proliferation Responses, Rhesus Monkey #7 [3]: 2+ | T-cell Proliferation Responses, Rhesus Monkey #23 [3]: 4+ | T-cell Proliferation Responses, Rhesus Monkey #283C [3]: 3+ | proliferative responses of PBMCs (in words) [3]: good proliferative responses | anti-peptide antibody titers (in words) [4]: very low to negligible; also recorded: do not stimulate anti-peptide antibody production | T cell response directed against both the corresponding peptide and native gp160 [5]: strong T cell response

FEPIPIHYCAFPGF [Peptide 114]
anti-peptide antibody titers (in words) [4]: high antibody titers

RTPTGLGQSLYTTRS [Peptide D38]
RT ACTIVITY (CPM) [2]: 5823 CPM

RIHIGPGARFLTTKN [Peptide D39]
RT ACTIVITY (CPM) [2]: 1978 CPM

LWDQSLKPCVKLT [Peptide 111]
T-cell Proliferation Responses, Rhesus Monkey #7 [3]: 3+ | T-cell Proliferation Responses, Rhesus Monkey #23 [3]: 2+ | T-cell Proliferation Responses, Rhesus Monkey #283C [3]: 3+ | proliferative responses of PBMCs (in words) [3]: good proliferative responses | anti-peptide antibody titers (in words) [4]: very low to negligible

RVTLGPGRVWYTTGE [Peptide D29]
RT ACTIVITY (CPM) [2]: 13009 CPM

SIHIGPGRAFYATGD [Peptide D30]
RT ACTIVITY (CPM) [2]: 3443 CPM

KKFNGTGPCTN [Peptide 115]
anti-peptide antibody titers (in words) [4]: high antibody titers

SITKGPGRVIYATGQ [Peptide D28]
RT ACTIVITY (CPM) [2]: 7634 CPM

HGEFAPGNYPALWSYA [Peptide B105, reference compound]
in vivo CTL response ([6]; […], same immunization protocol): successfully generated

SIRIGPGKVFTAKGG [Peptide D31]
RT ACTIVITY (CPM) [2]: 11877 CPM

YNKRKRIHIGPGRAFYTTKNNIGC [Peptide D23]
RT ACTIVITY (CPM) [2]: 94 CPM

CRIKQIINMWQGVGKAMYA [Peptide 65]
anti-peptide antibody titers (in words) [4]: high antibody titers

CRIKQIINMWQGVGKAMYA [Peptide 122]
CTL-inducing activity ([7]; helper T-cell peptide injected alone): lacked CTL-inducing activity

RIHIGPGRAFYTTKN [Peptide D24]
RT ACTIVITY (CPM) [2]: 5000 CPM

GIAIGPGRTLYAREK [Peptide D27]
RT ACTIVITY (CPM) [2]: 7657 CPM

GIHFGPGQALYTTGI [Peptide D33]
RT ACTIVITY (CPM) [2]: 8959 CPM

NNTRKSIRIQRGPGRAFVTIGKIG [Peptide N24G]
inhibition of HIV-1 infection of primary human T cells [8, 14]: 92% | concentration required for inhibition of syncytium formation ([9]; to achieve the same level of inhibition (30-60%)): 300 µM

RIQRGPGRAFVTIGK [Peptide R15K]
time to CTL induction in the popliteal lymph node ([7]; mouse, in vivo): ≤ 7 days | cytotoxicity after pre-treatment of effector cells with anti-CD4 MAbs plus complement, or complement alone ([6]; monomeric peptide): no significant effect | Lysis of MHC-matched target cells without peptide pre-treatment (P815) ([6]; mouse, in vivo): not observed | cytotoxicity after treatment of CTL effectors with anti-CD8 MAbs and rabbit complement ([6]; mouse, in vivo): abolished the cytotoxicity | lysis of P815 cells infected with recombinant vaccinia virus expressing HIV gp160 (VPE16) ([6]; mouse, in vivo): specifically lysed | mice with CTLs specifically lysing P815 pre-incubated with the peptide ([6]; mouse, in vivo): 8 of 12 and 13 of 13 and 6 of 8 | HIV-1 infection of MT-4 cells, reverse transcriptase activity in culture medium [10]: inhibits HIV-1 infection | syncytia [11]: no syncytia were observed | proliferative responses of PBMCs (in words) [3]: A significant response was not detected | % Specific Lysis ([1]; mouse, in vivo): 7.0% and 0.6% and 0% and 10.0% and 8.0% | HIV-1 infection of H9 cells, reverse transcriptase activity in culture supernatant [12]: inhibits HIV-1 infection | inhibitory activity retained, of control untreated peptide (bovine, fetal calf serum, 24 h): 50% | time for which full strength inhibitory activity was retained (incubation in fetal calf serum at 37°C, tested at 1 µg/ml on MT-4 cells): up to 4 hours | HIV-1 infection of CEM cells, reverse transcriptase activity in culture supernatant [13]: inhibits HIV-1 infection | inhibition of HIV-1 infection of primary human T cells [8]: 92% | % RT INHIBITION [2]: 73.2% | RT ACTIVITY (CPM) [2]: 2021 CPM

RIHIGPGRAFFTTKN [Peptide D40]
RT ACTIVITY (CPM) [2]: 2805 CPM

TKGPGRVIYATGQ [Peptide T13Q]
syncytia [11]: no syncytia were observed | inhibition of HIV-1 infection of primary human T cells [8, 14]: > 60%

NNTRKSITKGPGRVIYATGQIIGD [Peptide D26]
RT ACTIVITY (CPM) [2]: 2093 CPM

CTRPNNNTRKSIRIQRGPGRAFVTIGKIGNMRQAHC [reference compound]
inhibition of syncytium formation ([9]; 100 µM (approximately 300 µg/ml)): 30-60%

VYYGVPVWKEA [Peptide 104]
T-cell Proliferation Responses, Rhesus Monkey #7 [3]: 4+ | T-cell Proliferation Responses, Rhesus Monkey #23 [3]: 2+ | T-cell Proliferation Responses, Rhesus Monkey #283C [3]: 4+ | proliferative responses of PBMCs (in words) [3]: good proliferative responses | anti-peptide antibody titers (in words) [4]: very low to negligible; also recorded: do not stimulate anti-peptide antibody production | T cell response directed against both the corresponding peptide and native gp160 [5]: strong T cell response

HIGPGRAFYTTKN [Peptide H13N]
syncytia [11]: no syncytia were observed | inhibition of HIV-1 infection of primary human T cells [8, 14]: > 60%

STPIGLGQALYTTRI [Peptide D37]
RT ACTIVITY (CPM) [2]: 7027 CPM

YLRDQQLLGIWGC [Peptide 61]
T-cell Proliferation Responses, Rhesus Monkey #23 [3]: 3+ | T-cell Proliferation Responses, Rhesus Monkey #283C [3]: 2+ | proliferative responses of PBMCs (in words) [3]: Two of the three rhesus monkey-derived PBMC preparations also showed good proliferative responses | anti-peptide antibody titers (in words) [4]: very low to negligible; also recorded: do not stimulate anti-peptide antibody production | T cell response directed against both the corresponding peptide and native gp160 [5]: strong T cell response

VQCTHGIRPVVSTQ [Peptide 117]
anti-peptide antibody titers (in words) [4]: high antibody titers

STPIGLGQALYTTRG [Peptide D35]
RT ACTIVITY (CPM) [2]: 5242 CPM

SLKPCVKLTPLC [Peptide 112]
anti-peptide antibody titers (in words) [4]: high antibody titers

SIYIGPGRAFHTTGR [Peptide D32]
RT ACTIVITY (CPM) [2]: 8002 CPM

SLSIGPGRAPRTREI [Peptide D25]
RT ACTIVITY (CPM) [2]: 4342 CPM

GVPVWKEATTLFC [Peptide 105]
proliferative responses of PBMCs (in words) [3]: A significant response was not detected

SVITQACSKVSFE [Peptide 113]
T-cell Proliferation Responses, Rhesus Monkey #7 [3]: 1+ | T-cell Proliferation Responses, Rhesus Monkey #23 [3]: 2+ | T-cell Proliferation Responses, Rhesus Monkey #283C [3]: 2+ | proliferative responses of PBMCs (in words) [3]: weak responses | anti-peptide antibody titers (in words) [4]: very low to negligible; also recorded: do not stimulate anti-peptide antibody production | T cell response directed against both the corresponding peptide and native gp160 [5]: strong T cell response
